Results published in patent US10364360B2, “Surface coating material, coating film, and hydrophilic oil repellent member” (MITSUBISHI MATERIALS CORPORATION, priority 2014, dated 2019).

Test: Solubility of the compound in water
Format: physicochemical
Settings: room temperature (25° C.)
Method: 23.5 g of perfluoro(3-dibutylaminopropionic acid) was neutralized with 1.5 g of calcium hydroxide in a methanol/water mixed solution. The precipitated crystals were separated by filtration, and dried at 100° C., whereby 23.5 g of perfluoro(3-dibutylaminopropionic acid) calcium represented by the following Formula (378) was obtained (yield of 97%). The solubility of the present compound in water at room temperature (25° C.) was 2 [g/100 g-H2O].

O=C(O)C(F)(F)C(F)(F)N(C(F)(F)C(F)(F)C(F)(F)C(F)(F)F)C(F)(F)C(F)(F)C(F)(F)C(F)(F)F.[Ca] [Synthesis Example 3, perfluoro(3-dibutylaminopropionic acid) calcium]
solubility of the present compound in water: 2 g/100 g-H2O
